Measurements from patent US20210379016A1, “THERAPEUTICS AND METHODS OF TREATMENT OF ANGIOTENSIN-CONVERTING ENZYME 2 ASSOCIATED CONDITIONS” (Board of Supervisors of Louisiana State University and …, priority 2020, published 2021).
“Also recorded” adds a separate entry of the source.

How the values were obtained:
[1] = molecular target: Sigmar1 (Homo sapiens, UniProt Q99720); conditions: cited from earlier work; for Ki: read-out: binding affinity Ki for Sigmar1
[2] = tested on: ACE2 expression in HEK-293 cells; experiment: ACE2 expression in HEK-293 cells treated with Sigmar1 ligands for 24 hours; assay type: cell-based; conditions: 24 hours treatment

Chain of Sigmar1 (Q99720 whole entry, species assumed): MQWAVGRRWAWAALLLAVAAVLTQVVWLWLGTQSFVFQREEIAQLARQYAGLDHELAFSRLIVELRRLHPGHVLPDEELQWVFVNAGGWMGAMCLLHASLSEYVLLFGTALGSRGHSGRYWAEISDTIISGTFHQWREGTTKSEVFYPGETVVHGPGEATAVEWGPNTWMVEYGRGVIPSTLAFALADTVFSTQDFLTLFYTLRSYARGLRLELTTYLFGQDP

Q: With `c1ccc(CCN2CCCCC2)cc1` [AC927, 1-(2-phenylethyl) piperidine] as the molecule, how does the Ki [1] read?
A: 30 ± 2 nM

Q: For `CN1CCN(CCc2ccc(Cl)c(Cl)c2)CC1` [BD1063, 1-[2-(3,4-dichlorophenyl)ethyl]-4-methylpiperazine], which Ki [1] is on record?
A: 9 ± 1 nM

Q: Which Ki [1] does the source give for `CCN(CCc1ccc(Cl)c(Cl)c1)CCN1CCCC1` [BD1067, N-[2-(3,4-dichlorophenyl)ethyl]-N-ethyl-1-pyrrolidineethanamine] here?
A: 2 ± 0.5 nM

Q: Which “affinity for Sigmar1 (in words)” value [1] does the source give for `S=c1sc2ccccc2n1CCCCN1CCN(C2CCCCC2)CC1` [CM156, 3-(4-(4-cyclohexylpiperazin-1-yl)butyl) benzo [d]thiazole-2(3H)-thione] here?
A: nanomolar affinity

Q: With `CCCN(CCC)CCc1ccc(OC)c(OCCc2ccccc2)c1` [NE-100, 4-methoxy-3-(2-phenylethoxy)-N,N-dipropylbenzeneethanamine] as the molecule, how does the ACE2 expression [2] read?
A: significantly decreased the ACE2 expression; also recorded: decreases the ACE2 expression

Q: For `COc1ccc(N2C[C@H](CN3CCC(O)(c4ccc5c(c4)OCO5)CC3)OC2=O)cc1` [Panamesine], which IC50 [1] is on record?
A: 6 nM

Q: Which ACE2 expression [2] does the source give for `CN[C@H]1CC[C@@H](c2ccc(Cl)c(Cl)c2)c2ccccc21` [Sertraline] here?
A: significantly decreased the ACE2 expression; also recorded: decreases the ACE2 expression
